Counter-ions that a name gives are not always drawn. Like-named read-outs stand apart in the source and are kept apart here.
Biological target: SARS-CoV-2 3CLpro (Severe acute respiratory syndrome coronavirus 2, UniProt P0DTD1)
Experiment: biochemical
Type: biochemical
Design: Replicate_1 / Replicate_2 / mean / mean (LOPAC_screen_w_protease): unit not given here
[1] = 4 h, sheet LOPAC_screen_w_protease, LOPAC1280 primary screen at 5 µM, with protease, mean of the two replicates, read-out: mean
[2] = 4 h, sheet LOPAC_screen_w_protease, LOPAC1280 primary screen at 5 µM, with protease, replicate 1, read-out: Replicate_1
[3] = 4 h, sheet LOPAC_screen_w_protease, LOPAC1280 primary screen at 5 µM, with protease, replicate 2, read-out: Replicate_2
[4] = sheet LOPAC_screen_w_protease, primary screen with protease, mean of two replicates
[5] = sheet LOPAC_screen_w_protease, primary screen with protease, replicate 1
[6] = sheet LOPAC_screen_w_protease, primary screen of LOPAC1280 at 5 µM with protease, mean of the two replicates
[7] = sheet LOPAC_screen_w_protease, primary screen of LOPAC1280 at 5 µM with protease, replicate 1
[8] = sheet LOPAC_screen_w_protease, primary screen of LOPAC1280 at 5 µM with protease, replicate 2
[9] = LOPAC1280 primary screen with protease, 5 µM compound, mean of two replicates
[10] = LOPAC1280 primary screen with protease, 5 µM compound, replicate 1
[11] = LOPAC1280 primary screen with protease, 5 µM compound, replicate 2
[12] = sheet LOPAC_screen_w_protease, primary screen with protease, compound at 5 µM, mean of two replicates
[13] = sheet LOPAC_screen_w_protease, primary screen with protease, compound at 5 µM, replicate 1
[14] = sheet LOPAC_screen_w_protease, primary screen with protease, compound at 5 µM, replicate 2
[15] = 4 h, sheet LOPAC_screen_w_protease, LOPAC1280 primary screen with protease, 5 µM compound, mean of the two replicates, read-out: mean
[16] = 4 h, sheet LOPAC_screen_w_protease, LOPAC1280 primary screen with protease, 5 µM compound, replicate 1, read-out: Replicate_1
[17] = 4 h, sheet LOPAC_screen_w_protease, LOPAC1280 primary screen with protease, 5 µM compound, replicate 2, read-out: Replicate_2
[18] = 4 h, LOPAC1280 primary screen with protease, 5 µM compound, replicate 1, read-out: Replicate_1 (LOPAC_screen_w_protease)
[19] = 4 h, LOPAC1280 primary screen with protease, 5 µM compound, replicate 2, read-out: Replicate_2 (LOPAC_screen_w_protease)
[20] = LOPAC1280 primary screen with protease, 5 µM compound, mean of the two replicates
[21] = 4 h, sheet LOPAC_screen_w_protease, primary screen of LOPAC1280 at 5 µM with protease, mean of the two replicates, read-out: mean
[22] = 4 h, sheet LOPAC_screen_w_protease, primary screen of LOPAC1280 at 5 µM with protease, replicate 1, read-out: Replicate_1
[23] = 4 h, sheet LOPAC_screen_w_protease, primary screen of LOPAC1280 at 5 µM with protease, replicate 2, read-out: Replicate_2
[24] = sheet LOPAC_screen_w_protease, primary screen with protease, 5 µM, mean of two replicates
[25] = sheet LOPAC_screen_w_protease, primary screen with protease, 5 µM, replicate 1
[26] = sheet LOPAC_screen_w_protease, primary screen with protease, 5 µM, replicate 2

COc1ccc(Cl)cc1C(=O)NCCc1ccc(S(=O)(=O)NC(=O)NC2CCCCC2)cc1 [Glibenclamide]
inhibition at 5 µM [1]: 0.733%
inhibition at 5 µM [2]: 1.31%
inhibition at 5 µM [3]: 0.155%

S(-)-DS 121 hydrochloride
mean [4]: 2.32
Replicate_1 [5]: 2.977

N[C@@H]1CONC1=O (racemic) [DL-Cycloserine]
mean [6]: 3.186
Replicate_1 [7]: 2.383
Replicate_2 [8]: 3.989

CC(C)NP(=O)(NC(C)C)OP(=O)(NC(C)C)NC(C)C [Tetraisopropyl pyrophosphoramide]
inhibition at 5 µM (4 h, read-out: Replicate_1): 1.18%
inhibition at 5 µM (4 h, read-out: Replicate_2): -0.275%
inhibition at 5 µM (4 h, read-out: mean): 0.452%

CCCn1c(=O)c2[nH]c(C3CCCC3)nc2n(CCC)c1=O [8-Cyclopentyl-1,3-dipropylxanthine]
mean (LOPAC_screen_w_protease) [9]: 1.568
Replicate_1 (LOPAC_screen_w_protease) [10]: 3.936
Replicate_2 (LOPAC_screen_w_protease) [11]: -0.7999

C[C@H](O)[C@H](O)[C@H]1CNc2nc(N)[nH]c(=O)c2N1.Cl
mean [12]: 3.136
Replicate_1 [13]: 3.694
Replicate_2 [14]: 2.577

CN1C[C@@H](NS(=O)(=O)N(C)C)C[C@@H]2c3cccc4c3c(cn4C)C[C@H]21 [Mesulergine hydrochloride]
inhibition at 5 µM [15]: 5.36%
inhibition at 5 µM [16]: 4.85%
inhibition at 5 µM [17]: 5.86%

CN[C@@H]1C[C@@H](c2ccc(Cl)c(Cl)c2)c2ccccc21 [Indatraline hydrochloride]
inhibition at 5 µM [18]: 1.51%
inhibition at 5 µM [19]: 2.53%
mean (LOPAC_screen_w_protease) [20]: 2.022

CC1CCN(CC[C@H]2CCCN2S(=O)(=O)c2cccc(O)c2)CC1.Cl [SB 269970 hydrochloride]
mean (LOPAC_screen_w_protease) [20]: 2.103
Replicate_1 (LOPAC_screen_w_protease) [10]: 1.356
Replicate_2 (LOPAC_screen_w_protease) [11]: 2.851

Cc1nc2ccccn2c(=O)c1CCN1CCC(C(=O)c2ccc(F)cc2)CC1 [Pirenperone]
inhibition at 5 µM [1]: 0.688%
inhibition at 5 µM [2]: 0.852%
inhibition at 5 µM [3]: 0.525%

C=C[C@@]1(C)CC(=O)[C@]2(O)[C@@]3(C)[C@@H](O)CCC(C)(C)[C@@H]3[C@H](O)[C@H](OC(C)=O)[C@@]2(C)O1 [Forskolin]
inhibition at 5 µM (4 h, sheet LOPAC_screen_w_protease, LOPAC1280 at 5 µM, mean of two replicates, read-out: mean): 1.29%
inhibition at 5 µM (4 h, sheet LOPAC_screen_w_protease, LOPAC1280 at 5 µM, replicate 1, read-out: Replicate_1): 1.85%
inhibition at 5 µM (4 h, sheet LOPAC_screen_w_protease, LOPAC1280 at 5 µM, replicate 2, read-out: Replicate_2): 0.734%

CC(CCc1ccccc1)NC(C)C(O)c1ccc(O)cc1 (centres unmarked) [Nylidrin hydrochloride]
inhibition at 5 µM [21]: 3.76%
inhibition at 5 µM [22]: 4.88%
inhibition at 5 µM [23]: 2.65%

O.c1cnc2c(c1)ccc1cccnc12 [1,10-Phenanthroline monohydrate]
mean [24]: 0.3766
Replicate_1 [25]: -0.05956
Replicate_2 [26]: 0.8127

CCN(CC)CCCCCCCCOC(=O)c1cc(OC)c(OC)c(OC)c1.Cl [TMB-8 hydrochloride]
mean [24]: -0.545
Replicate_1 [25]: 0.4949
Replicate_2 [26]: -1.585

CC(C)(C)c1o[nH]c(=O)c1CC(N)C(=O)O (centres unmarked) [ATPA]
mean (sheet LOPAC_screen_w_protease, LOPAC1280 primary screen at 5 µM, with protease, mean of the two replicates): 0.4603
Replicate_1 (sheet LOPAC_screen_w_protease, LOPAC1280 primary screen at 5 µM, with protease, replicate 1): -0.08438
Replicate_2 (sheet LOPAC_screen_w_protease, LOPAC1280 primary screen at 5 µM, with protease, replicate 2): 1.005

O=c1c(O)c(-c2ccc(O)c(O)c2)oc2cc(O)cc(O)c12 [Quercetin dihydrate]
inhibition at 5 µM (4 h, read-out: Replicate_1 (LOPAC_screen_w_protease)): 2.76%
inhibition at 5 µM (4 h, read-out: Replicate_2 (LOPAC_screen_w_protease)): 1.18%

Nc1ncnc2c1ncn2C1CCCC1 [9-cyclopentyladenine]
mean [12]: 2.587
Replicate_1 [13]: 2.53
Replicate_2 [14]: 2.643

Cl.FC(F)(F)c1cc(CO[C@H]2CCCN[C@H]2c2ccccc2)cc(C(F)(F)F)c1 [L-733,060 hydrochloride]
mean [6]: 3.689
Replicate_1 [7]: 3.241
Replicate_2 [8]: 4.136

c1ccc(C2CN3CCSC3=N2)cc1 (centres unmarked) [Tetramisole hydrochloride]
inhibition at 5 µM (4 h, read-out: Replicate_1): 1.43%
inhibition at 5 µM (4 h, read-out: Replicate_2): -2.01%
inhibition at 5 µM (4 h, read-out: mean): -0.287%

Cc1ccccc1N1C(=O)c2cc(S(N)(=O)=O)c(Cl)cc2NC1C (centres unmarked) [Metolazone]
inhibition at 5 µM [15]: 5.24%
inhibition at 5 µM [16]: 4.55%
inhibition at 5 µM [17]: 5.92%

CS(=O)(=O)Nc1ccc([N+](=O)[O-])cc1Oc1ccccc1 [Nimesulide]
inhibition at 5 µM (4 h, read-out: Replicate_1): 4.73%
inhibition at 5 µM (4 h, read-out: Replicate_2): 4.45%
inhibition at 5 µM (4 h, read-out: mean): 4.59%

CO[C@@]1(NC(=O)CSCC#N)C(=O)N2C(C(=O)O)=C(CSc3nnnn3C)CS[C@@H]21 [Cefmetazole sodium]
inhibition at 5 µM [18]: 1.13%
inhibition at 5 µM [19]: 2.27%
mean (LOPAC_screen_w_protease) [9]: 1.702

CC(=O)O[C@H]1C[C@@H]2CC[C@@H]3[C@H](CC[C@@]4(C)[C@H]3C[C@H]([N+]3(C)CCCCC3)[C@@H]4OC(C)=O)[C@@]2(C)C[C@@H]1[N+]1(C)CCCCC1 [Pancuronium bromide]
inhibition at 5 µM [21]: 3.86%
inhibition at 5 µM [22]: 2.32%
inhibition at 5 µM [23]: 5.41%

Oc1ccc2c3c1O[C@H]1c4oc5ccccc5c4C[C@@]4(O)[C@@H](C2)N(CC2CC2)CC[C@]314 [Naltriben methanesulfonate]
inhibition at 5 µM (4 h, read-out: Replicate_1): 4.4%
inhibition at 5 µM (4 h, read-out: Replicate_2): 3%
inhibition at 5 µM (4 h, read-out: mean): 3.7%

COc1ccc2c(c[n+](C)c3c4cc5c(cc4ccc23)OCO5)c1OC [Chelerythrine chloride]
inhibition at 5 µM (4 h, sheet LOPAC_screen_w_protease, primary screen at 5 µM, mean of two replicates, read-out: mean (LOPAC screen with protease)): 11.5%
inhibition at 5 µM (4 h, sheet LOPAC_screen_w_protease, primary screen at 5 µM, replicate 1, read-out: Replicate_1 (LOPAC screen with protease)): 12.7%
inhibition at 5 µM (4 h, sheet LOPAC_screen_w_protease, primary screen at 5 µM, replicate 2, read-out: Replicate_2 (LOPAC screen with protease)): 10.3%

OC[C@H]1O[C@@H](n2cnc3c(Nc4ccccc4)ncnc32)[C@H](O)[C@@H]1O [N6-Phenyladenosine]
inhibition at 5 µM [18]: 2.83%
inhibition at 5 µM [19]: 0.0632%
mean (LOPAC_screen_w_protease) [9]: 1.447

CCCCCCCCCCCCCCCCCCOCC(COP(=O)([O-])OCC[N+](C)(C)C)OC (centres unmarked) [ET-18-OCH3]
mean (LOPAC_screen_w_protease) [9]: 1.443
Replicate_1 (LOPAC_screen_w_protease) [10]: 1.735
Replicate_2 (LOPAC_screen_w_protease) [11]: 1.151

N[C@@H](COP(=O)(O)O)C(=O)O [O-Phospho-L-serine]
mean (sheet LOPAC_screen_w_protease, LOPAC1280 primary screen with protease, 5 µM compound, mean of the two replicates): 5.279
Replicate_1 (sheet LOPAC_screen_w_protease, LOPAC1280 primary screen with protease, 5 µM compound, replicate 1): 3.193
Replicate_2 (sheet LOPAC_screen_w_protease, LOPAC1280 primary screen with protease, 5 µM compound, replicate 2): 7.365

O=C1NCC2(CCN(CCc3ccccc3)CC2)O1 [Fenspiride hydrochloride]
inhibition at 5 µM (4 h, sheet LOPAC_screen_w_protease, primary screen with protease, mean of two replicates, read-out: mean): 2.48%
inhibition at 5 µM (4 h, sheet LOPAC_screen_w_protease, primary screen with protease, replicate 1, read-out: Replicate_1): 4.11%
inhibition at 5 µM (4 h, sheet LOPAC_screen_w_protease, primary screen with protease, replicate 2, read-out: Replicate_2): 0.843%

Cl.NCC(O)C1CCCCCCC1 (centres unmarked)
mean (sheet LOPAC_screen_w_protease, LOPAC1280 at 5 µM, mean of two replicates): 1.1388
Replicate_1 (sheet LOPAC_screen_w_protease, LOPAC1280 at 5 µM, replicate 1): 2.0547
Replicate_2 (sheet LOPAC_screen_w_protease, LOPAC1280 at 5 µM, replicate 2): 0.2229

COc1cccc(C(=O)NCCN2CCN(c3ccc(Cl)cc3)CC2)c1
mean [4]: 2.269
Replicate_1 [5]: 1.008
Replicate_2 (sheet LOPAC_screen_w_protease, primary screen with protease, replicate 2): 3.529

O=c1cc(-c2ccc(O)c(O)c2)oc2cc(O)cc(O)c12 [luteolin, reference compound]
inhibition at 5 µM (4 h, read-out: Replicate_1): 0.919%
inhibition at 5 µM (4 h, read-out: Replicate_2): 1.72%
inhibition at 5 µM (4 h, read-out: mean): 1.32%
inhibition at 5 µM (read-out: inhibition of 3CLpro in the primary screen): 1.3%

CC[C@@]1(O)C(=O)OCc2c1cc1n(c2=O)Cc2cc3ccccc3nc2-1 [(S)-(+)-Camptothecin]
mean [6]: 3.282
Replicate_1 [7]: 4.077
Replicate_2 [8]: 2.488

C=CC[C@H](N)C(=O)O [L-allylglycine]
mean [24]: 0.3305
Replicate_1 [25]: -0.7105
Replicate_2 [26]: 1.372

Cn1ccc2cc3c(cc21)CCN3C(=O)Nc1cccnc1 [SB 206553 hydrochloride]
mean [12]: 2.821
Replicate_1 [13]: 3.909
Replicate_2 [14]: 1.733
